Experiments:
[1] = tested on: SPCA-1 cells; assay: γ-H2AX foci and Western blot (DSBs), SPCA-1 (Example 22); format: cell-based, human
Protocol: To investigate the effect of JAC4 in combination with X-ray on DSBs in SPCA-1 and BEAS-2B cells, SPCA-1 and BEAS-2B cells were pretreated with 10 μM JAC4 for 24 h and 4 Gy X-ray for 2 h, and then subjected to γ-H2AX fluorescent labeling and Western immunoblot (see Example 4 for detailed procedures).

[2] = tested on: C57BL/6 male mice; assay: Prophylactic JAC4 administration, total body X-ray irradiation, small intestine villus length (Example 6); format: in vivo
Protocol: C57BL/6 male mice (24.8±1.6 g in body weight) aged 10 weeks were divided into 4 groups. JAC4 (100 mg/kg) or an equal volume of vehicle (polyethylene glycol:ethanol:physiological saline=47.5:7.5:50, v/v/v) was orally administered to the mice once daily for 7 consecutive days. After that, the mice were subjected to total body X-ray irradiation (6 Gy) and JAC4 or vehicle treatment was discontinued. After 7 days, the small intestine tissues were collected for HE staining and inspection, and the small intestine villus length was measured in all groups and statistically analyzed. The specific procedures are as follows: 3 mice were randomly selected from each group for statistical analysis of their small intestine tissue HE staining images, and for each mouse, 6 fields of view were randomly selected for inspection (*** p<0.001).

[3] = tested on: C57BL/6 male mice; assay: Lengths of small intestine and colon, acute radiation enteritis (Example 11); format: in vivo; details: JAC4 100 mg/kg oral + abdominal X-ray 12 Gy
Protocol: C57BL/6 male mice (27.6±1.9 g in body weight) aged 10 weeks were divided into 3 groups of 6 mice each. JAC4 (100 mg/kg) or an equal volume of vehicle (polyethylene glycol:ethanol:physiological saline=40:7.5:52.5, v/v/v) was orally administered to the mice once daily for 7 consecutive days. After that, the mice were subjected to abdominal X-ray irradiation (12 Gy) and JAC4 or vehicle treatment was continued. After 4 days, blood samples and small intestine were collected.
The small intestine epithelial mucosal barrier is located at the interface between luminal micro-organisms and the mucosal immune system, and can maintain the intestinal mucosal barrier homeostasis. The integrity of the small intestine mucosal barrier is determined by a number of factors, including the tight junction proteins, proteins in other cell junction complexes, and the like. JAC4 has a protective effect on the small intestine mucosal barrier. The disruption of the small intestine mucosal barrier may lead to radiation enteritis and a reduction in the length of small intestine due to the inflammatory edema.

[4] = tested on: SPCA-1 cells; assay: CCK-8 cell viability, JAC4 with X-ray, SPCA-1 (Example 22); format: cell-based, human; details: 10 μM JAC4 24 h + 4 Gy X-ray 24 h
Protocol: SPCA-1 and BEAS-2B cells were cultured in a 90%/DMEM+10% FBS+100 μg/mL ciprofloxacin culture medium. The SPCA-1 and BEAS-2B cells were pretreated for 24 h with 10 μM JAC4 and subjected to 4 Gy X-ray treatment for 24 h and then CCK-8 detection, so as to explore the influence of JAC4 in combination with X-ray on the viability of SPCA-1 and BEAS-2B cells. The specific procedures are as follows:
1. SPCA-1 and BEAS-2B cells in the exponential growth phase were plated in a 96-well plate at 5,000 cells/well in triplicate for each group.
2. After 24 h of culture, when the cells fully adhered to the container wall and returned to normal morphology, the cells were treated with X-ray radiation of 0, 4, 8, 12, 16, or 20 Gy or JAC4 at 0, 1, 5, 10, 20, or 50 μM.
3. After 24 h of treatment, CCK-8 reagent was added at 10 μL/well, and the cells were incubated in a cell incubator for 1 h. The absorbance (OD) at 450 nm was measured.
4. Cell viability equation: cell viability (%)=[…]×100%/(ODcontrol−ODblank).

[5] = tested on: IEC-6 cells; assay: Early apoptosis by Annexin V-PI staining in irradiated IEC-6 cells (Example 13); format: cell-based; details: 1 μM JAC4 24 h + 12 Gy X-ray, 24 h after
Protocol: The apoptosis of IEC-6 cells was determined by Annexin V-PI staining and the early apoptosis rates of IEC-6 cells after different treatments were summarized (***p<0.001). The procedures for the detection by Annexin V-PI staining are as follows: IEC-6 cells were seeded in a 6-well plate at 2×10^5 cells/well. After adhesion, the cells were treated with 1 μM JAC4 or DMSO for 24 h and subjected to 12 Gy of X-ray radiation. After 24 h, the cells were harvested in PBS and analyzed using the Annexin V apoptosis detection kit (BD, FACS AriaIII, USA) on a flow cytometer.

[6] = tested on: lung tissue; assay: Inflammation level in lung tissue of xenograft mice (RT-PCR, HE) (Example 21); format: in vivo
Protocol: After the modeling in Example 20 was completed, the inflammation level and DNA damage in the lung tissue were detected by the following specific procedures: 3 mice were randomly selected from each group to provide the lung tissue. About 20-30 mg of lung tissue was collected from each mouse in a centrifuge tube. The total RNA was isolated and extracted using the TRIzol reagent (Invitrogen) for RT-PCR (Reverse Transcription-Polymerase Chain Reaction) detection. The RNA was reversely transcribed into cDNA using a reverse transcription kit from Vazyme. Reaction system: 42° C., 2 min; 37° C., 15 min; 85° C., 5 s. The samples were preserved in a refrigerator at […] or −80° C. for later use. 30-35 PCR amplification cycles were performed. The data were analyzed by the ΔΔCt method using glyceraldehyde-3-phosphate dehydrogenase (GAPDH) as an internal standard and the AceQ qPCR SYBR Green Master Mix fluorescent quantitative PCR reagent from Vazyme on the 7900HT high throughput flash real-time fluorescent quantitative PCR system from Thermo Fisher Scientific for PCR assay. The results are shown in FIG. 29, with the following specific conditions: […]

[7] = tested on: NF-κB; assay: NF-κB nuclear translocation by Western blot, BEAS-2B (Example 22); format: cell-based, human; details: JAC4 in combination with X-ray
Source text: The production of ROS may lead to the activation of NF-κB, promote the translocation of NF-κB to the cell nucleus, and mediate various inflammatory responses. The nuclear and cytoplasmic proteins in BEAS-2B cells in all groups were separated.

[8] = SPCA-1, 10 μM JAC4 + 4 Gy X-ray vs X-ray monotherapy
[9] = JAC4+X-ray group relative to X-ray group

c1ccc(CSc2nnc(C3COc4ccccc4O3)o2)nc1 (stereo not drawn) [JAC4]
γ-H2AX foci ([1]; SPCA-1, 10 μM JAC4 24 h + 4 Gy X-ray 2 h vs X-ray monotherapy): increase
JWA expression level (Western blot) [1, 8]: increased
γ-H2AX expression level (Western blot) [1, 8]: increased
small intestine villus length ([2]; JAC4 100 mg/kg oral 7 days pretreatment, then TBI 6 Gy, tissue 7 days later): 277.64±33.55 μm
small intestine villus length ([2]; non-radiation, JAC4 100 mg/kg oral 7 days): 306.54±14.00 μm
small intestine length ([3]; 4 days after): 34.83±1.44 cm
length of the colon ([3]; among the groups): no statistically significant differences
viability of SPCA-1 cells (CCK-8) [4]: significantly inhibited
early apoptosis rate (Annexin V-PI) [5]: 5.74±0.80%
mRNA level of anti-inflammatory factor IL-10 in lung tissue [6, 9]: 2.91 folds
mRNA level of proinflammatory factor IL-1P in lung tissue [6, 9]: 0.43 folds
mRNA level of proinflammatory factor TGF-β1 in lung tissue [6, 9]: 0.71 folds
mRNA level of proinflammatory factor TNF-α in lung tissue [6, 9]: 0.63 folds
HE staining of lung tissues ([6]; JAC4 treatment in combination with X-ray therapy): reduced inflammatory cell infiltration
X-ray-induced increase of NF-κB nuclear expression [7]: inhibited
